Measured values as given in paper PMC7583830 (Molecules, 2020).
Where a SMILES comes first, the peptide text is derived from it. [ ]: non-standard residue; d: D form. The star is where a group is joined. DOTA = O=C(O)CN1CCN(CC(=O)O)CCN(CC(=O)*)CCN(CC(=O)O)CC1; 1Nal = N[C@@H](Cc1cccc2ccccc12)C(=O)O; NMeNle = CCCC[C@H](NC)C(=O)O

Assay: Distribution coefficient (logD) in octanol/PBS
Type: physicochemical
Conditions: octanol/PBS pH 7.4; read-out: logD
Experimental: The mixture was vigorously vortexed at room temperature over a period of 15 min using a small shaker (MS3 Basic, IKA, Staufen, Germany) with speed of 1500 rpm.

SMILES: CCCC[C@@H](C(=O)N[C@@H](CC(=O)O)C(=O)N[C@@H](Cc1cccc2ccccc12)C(N)=O)N(C)C(=O)[C@H](Cc1c[nH]c2ccccc12)NC(=O)CNC(=O)[C@H](Cc1ccc(O)cc1)NC(=O)[C@@H]1CCCN1C(=O)[C@@H](CCC(=O)O)NC(=O)CN1CCN(CC(=O)O)CCN(CC(=O)O)CCN(CC(=O)O)CC1 [[^177Lu]Lu-1, metal not drawn] ({DOTA}-[dE]PYGW[NMeNle]D[1Nal]-NH2)
- logD: -1.96 ± 0.07
